Test system: Acinetobacter baumannii strains
Assay: Antibiotic susceptibility test (CLSI disk diffusion test method, read per CLSI 2016)
Assay type: cell-based
Parameters: antibiotic susceptibility test value / susceptibility test value (number given before S/I/R) / antibiotic susceptibility value: unit not given here
Method: (§1) Strain identification was performed using a kit such as AT 32 GN system (bioMérieux, Marcy l'Etoile, France). […] In Table 2 below, S, I, and R are the results obtained by evaluating susceptibility to the antibacterial agents, in which ‘S’ means susceptible, ‘I’ means intermediate, and ‘R’ means resistant.
as §1, with “as ATB” for “as AT”, “system (bioMédrieux,” for “system (bioMérieux,”, “Table 6” for “Table 2”
as §1, with “as ATB” for “as AT”, “Table 10” for “Table 2”, “susceptible, T” for “susceptible, ‘I’”

## colistin
Host strain YMC14/01/C29
  antibiotic susceptibility class: S
  antibiotic susceptibility test value: 0.5
Host strain YMC14/01/IP122
  antibiotic susceptibility class: S
  antibiotic susceptibility test value: 0.5
Host strain YMC14/01/L8
  antibiotic susceptibility class: S
  antibiotic susceptibility test value: 0.5
Host strain YMC14/01/P31
  antibiotic susceptibility class: S
  antibiotic susceptibility test value: 0.5
Host strain YMC14/01/P117
  antibiotic susceptibility class: S
  antibiotic susceptibility test value: 0.5
Host strain YMC14/01/P224
  antibiotic susceptibility class: S
  antibiotic susceptibility test value: 0.5
Host strain YMC14/01/P727
  antibiotic susceptibility class: S
  antibiotic susceptibility test value: 0.5
Host strain YMC14/01/P728
  antibiotic susceptibility class: S
  antibiotic susceptibility test value: 0.5
Host strain YMC14/01/R130
  antibiotic susceptibility class: S
  antibiotic susceptibility test value: 0.5
Host strain YMC14/01/R160
  antibiotic susceptibility class: S
  antibiotic susceptibility test value: 0.5
Host strain YMC14/01/R198
  antibiotic susceptibility class: S
  antibiotic susceptibility test value: 0.5
Host strain YMC14/01/R257
  antibiotic susceptibility class: S
  antibiotic susceptibility test value: 0.5
Host strain YMC14/01/R270
  antibiotic susceptibility class: S
  antibiotic susceptibility test value: 0.5
Host strain YMC14/01/R324
  antibiotic susceptibility class: S
  antibiotic susceptibility test value: 0.5
Host strain YMC14/01/R443
  antibiotic susceptibility class: S
  antibiotic susceptibility test value: 0.5
Host strain YMC14/01/R451
  antibiotic susceptibility class: S
  antibiotic susceptibility test value: 0.5
Host strain YMC14/01/R560
  antibiotic susceptibility class: S
  antibiotic susceptibility test value: 0.5
Host strain YMC14/01/R617
  antibiotic susceptibility class: S
  antibiotic susceptibility test value: 0.5
Host strain YMC14/01/R671
  antibiotic susceptibility class: S
  antibiotic susceptibility test value: 0.5
Host strain YMC14/01/R732
  antibiotic susceptibility class: S
  antibiotic susceptibility test value: 0.5
Host strain YMC14/01/R767
  antibiotic susceptibility class: S
  antibiotic susceptibility test value: 0.5
Host strain YMC14/01/R904
  antibiotic susceptibility class: S
  antibiotic susceptibility test value: 0.5
Host strain YMC14/01/R905
  antibiotic susceptibility class: S
  antibiotic susceptibility test value: 0.5
Host strain YMC14/01/R921
  antibiotic susceptibility class: S
  antibiotic susceptibility test value: 0.5
Host strain YMC14/01/R941
  antibiotic susceptibility class: S
  antibiotic susceptibility test value: 0.5
Host strain YMC14/01/R958
  antibiotic susceptibility class: S
  antibiotic susceptibility test value: 0.5
Host strain YMC14/01/R1006
  antibiotic susceptibility class: S
  antibiotic susceptibility test value: 0.5
Host strain YMC14/01/R1199
  antibiotic susceptibility class: S
  antibiotic susceptibility test value: 0.5
Host strain YMC14/01/R1659
  antibiotic susceptibility class: S
  antibiotic susceptibility test value: 0.5
Host strain YMC14/01/R1722
  antibiotic susceptibility class: S
  antibiotic susceptibility test value: 0.5
Host strain YMC14/01/R1752
  antibiotic susceptibility class: S
  antibiotic susceptibility test value: 0.5
Host strain YMC14/01/R2429
  antibiotic susceptibility class: S
  antibiotic susceptibility test value: 0.5
Host strain YMC14/01/R2572
  antibiotic susceptibility class: S
  antibiotic susceptibility test value: 0.5
Host strain YMC14/01/R2855
  antibiotic susceptibility class: S
  antibiotic susceptibility test value: 0.5
Host strain YMC14/01/R2945
  antibiotic susceptibility class: S
  antibiotic susceptibility test value: 0.5
Host strain YMC14/01/R3007
  antibiotic susceptibility class: S
  antibiotic susceptibility test value: 0.5
Host strain YMC14/01/R3129
  antibiotic susceptibility class: S
  antibiotic susceptibility test value: 0.5
Host strain YMC14/01/R3317
  antibiotic susceptibility class: S
  antibiotic susceptibility test value: 0.5
Host strain YMC14/01/R3474
  antibiotic susceptibility class: S
  antibiotic susceptibility test value: 0.5
Host strain YMC14/01/R3574
  antibiotic susceptibility class: S
  antibiotic susceptibility test value: 0.5
Host strain YMC14/01/U313
  antibiotic susceptibility class: S
  antibiotic susceptibility test value: 0.5
Host strain YMC14/01/U318
  antibiotic susceptibility class: S
  antibiotic susceptibility test value: 0.5
Host strain YMC14/02/L18
  antibiotic susceptibility class: S
  antibiotic susceptibility test value: 0.5
Host strain YMC14/02/P47
  antibiotic susceptibility class: S
  antibiotic susceptibility test value: 0.5
Host strain YMC14/02/R1860
  antibiotic susceptibility class: S
  antibiotic susceptibility test value: 0.5
Host strain YMC14/02/R2417
  antibiotic susceptibility class: S
  antibiotic susceptibility test value: 0.5
Host strain YMC14/02/R2599
  antibiotic susceptibility class: S
  antibiotic susceptibility test value: 0.5
Host strain YMC14/02/R2668
  antibiotic susceptibility class: S
  antibiotic susceptibility test value: 0.5
Host strain YMC14/02/R2758
  antibiotic susceptibility class: S
  antibiotic susceptibility test value: 0.5
Host strain YMC14/02/R2781
  antibiotic susceptibility class: S
  antibiotic susceptibility test value: 0.5
Host strain YMC14/02/R3106
  antibiotic susceptibility class: S
  antibiotic susceptibility test value: 0.5
Host strain YMC14/02/R3419
  antibiotic susceptibility class: S
  antibiotic susceptibility test value: 0.5
Host strain YMC14/02/U1607
  antibiotic susceptibility class: S
  antibiotic susceptibility test value: 0.5
Host strain YMC14/03/L9
  antibiotic susceptibility class: S
  antibiotic susceptibility test value: 0.5
Host strain YMC14/03/P471
  antibiotic susceptibility class: S
  antibiotic susceptibility test value: 0.5
Host strain YMC14/03/R122
  antibiotic susceptibility class: S
  antibiotic susceptibility test value: 0.5
Host strain YMC14/03/R217
  antibiotic susceptibility class: S
  antibiotic susceptibility test value: 0.5
Host strain YMC14/03/R380
  antibiotic susceptibility class: S
  antibiotic susceptibility test value: 0.5
Host strain YMC14/03/R618
  antibiotic susceptibility class: S
  antibiotic susceptibility test value: 0.5
Host strain YMC14/03/R2144
  antibiotic susceptibility class: S
  antibiotic susceptibility test value: 0.5
Host strain YMC14/03/U4616
  antibiotic susceptibility class: S
  antibiotic susceptibility test value: 0.5
Host strain YMC14/04/R1078
  antibiotic susceptibility class: S
  antibiotic susceptibility test value: 0.5
Host strain YMC14/04/R1080
  antibiotic susceptibility class: S
  antibiotic susceptibility test value: 0.5
Host strain YMC14/06/R2359
  antibiotic susceptibility S/I/R: R
  antibiotic susceptibility value: 16
  susceptibility category (S/I/R): R
  susceptibility test value (number given before S/I/R): 16
Host strain YMC14/08/R1169
  antibiotic susceptibility S/I/R: R
  antibiotic susceptibility value: 16
  susceptibility category (S/I/R): R
  susceptibility test value (number given before S/I/R): 16
Host strain YMC14/08/T90
  antibiotic susceptibility S/I/R: R
  antibiotic susceptibility value: 16
  susceptibility category (S/I/R): R
  susceptibility test value (number given before S/I/R): 16
Host strain YMC15/02/R436
  antibiotic susceptibility S/I/R: R
  antibiotic susceptibility value: 8
  susceptibility category (S/I/R): R
  susceptibility test value (number given before S/I/R): 8
Host strain YMC15/02/T28
  antibiotic susceptibility S/I/R: R
  antibiotic susceptibility value: 16
  susceptibility category (S/I/R): R
  susceptibility test value (number given before S/I/R): 16
Host strain YMC15/03/R1604
  antibiotic susceptibility S/I/R: R
  antibiotic susceptibility value: 16
  susceptibility category (S/I/R): R
  susceptibility test value (number given before S/I/R): 16
Host strain YMC15/09/R1869
  antibiotic susceptibility S/I/R: R
  antibiotic susceptibility value: 16
  susceptibility category (S/I/R): R
  susceptibility test value (number given before S/I/R): 16
Host strain YMC16/01/P11
  antibiotic susceptibility S/I/R: S
  antibiotic susceptibility value: 0.5
  susceptibility category (S/I/R): S
  susceptibility test value (number given before S/I/R): 0.5
Host strain YMC16/01/R123
  antibiotic susceptibility S/I/R: S
  antibiotic susceptibility value: 0.5
  susceptibility category (S/I/R): S
  susceptibility test value (number given before S/I/R): 0.5
Host strain YMC16/01/R198
  antibiotic susceptibility S/I/R: S
  antibiotic susceptibility value: 0.5
  susceptibility category (S/I/R): S
  susceptibility test value (number given before S/I/R): 0.5
Host strain YMC16/01/R353
  antibiotic susceptibility S/I/R: S

Reference: patent publication US20240000872A1, “NOVEL BACTERIOPHAGE THAT LYSES ACINETOBACTER GENUS BACTERIA HAVING RESISTANCE TO ANTIBIOTICS” (priority 2020, published 2024)
